Measured values: patent US10383844B2, “Methods for treating pulmonary fibrosis using chromenone derivatives” (College of Medicine Pochon Cha University Industry—Academic …, priority 2017, dated 2019)

Experiments:
L132 cells [1] = assay: Degree of EMT induced by TGF-beta in L132 cells (western blots); type: cell-based; conditions: L132, 0.1 μM, 1 hour later TGF-beta 5 ng/mL for 48 hours, FIG. 3(A)
Description: (§1) For the experiment, L132 cells were cultured at 37° C. in a 5% CO2 incubator by using an RPMI 1640 (RPMI, GIBCO-Invitrogen, Paisley, Scotland, UK) medium containing 10% FBS and 1× Antibiotic-Antimycotic (GIBCO-Invitrogen, Paisley, Scotland, UK).
(§2) To carry out the western blots, the treated cells were respectively washed twice with 1×PBS (0.14 M NaCl, 2.68 mM KCl, 10 mM Na2HPO4, 1.83 mM KH2PO4), after which the resulting cells were dissolved in a protein lysis buffer (100 mM Tris-HCl (pH 7.5), 50 mM NaCl, 5 mM EDTA (pH 8.0), 0.5% NP-40, 0.5% Sodium deoxycholate, 50 mM β-glycerophosphate, 0.1 mM Na3VO4, 50 mM NaF). A cell suspension was centrifuged at 13000 rpm for 30 minutes, after which only a supernatant thereof was taken out, such that 1% BSA solution was injected by 8, 6, 4, 2 and 0 μL into Protein Dye 1 mL as a standard by using a Bradford assay and 2 μL of the supernatant was added thereinto. The resulting solution was divided by 200 μL into each of a 96-well plate, after which the resulting plate was put into an ELISA reader to measure an optical observance thereof at an wavelength of 595 nm, such that a 6× sample buffer (0.35 M Tris (pH 6.8), 3% glycerol, 1% Sodium Dodecyl Sulfate, 6 mM Dithiothreitol) was injected to make a sample containing the same amount of protein. Then, the resulting sample was soaked in 100° C. water and boiled for 5 minutes and the same amount of protein was analyzed by using SDS-PAGE. A primary antibody used for the western blots was anti-HSP27 and β-actin (Santacruz, sc-13132 and sc-47778), and also anti-E-cadherin (BD, #610181), anti-Vimentin (BD, #550513), anti-Fibronectin (BD, #610077), anti-snail (Cell signaling, #3895S), anti-alpha-smooth muscle actin (Sigma, A5228), and anti-Zo-1 (Life technologies, #402200) were used. A secondary antibody used was Goat anti rabbit and Goat anti mouse (Santacruz, sc-2004 and sc-2005).
To identify a degree of EMT according to a production of altered HSP27 dimers in cells, L132, a normal lung cell, was treated with Compound 1 of the present invention at a 0.1 μM concentration, and in 1 hour later the cell was treated with TGF-beta at a 5 ng/mL concentration for 48 hours. Then, a cell culture and western blots were performed in the same method as the above Experimental Example 1.

L132 cells [2] = assay: Degree of radiation-induced EMT in L132 cells (western blots); type: cell-based; conditions: L132, 0.1 μM, 1 hour later radiation 5 Gy, 48 hours, FIG. 3(B)
Description: as §1
as §2, with “sc-2005). […]” for “sc-2005).”

[3] = system: radiation-induced pulmonary fibrosis; assay: Small animal model of radiation-induced pulmonary fibrosis (local lung irradiation); type: in vivo; conditions: C57BL/6 male mouse, left lung 75 Gy, 13.6 mg/kg intraperitoneally three times a week, FIG. 4(B)
Description: To identify an anti-pulmonary fibrosis effect according to a production of HSP27 dimers in a small animal model on lung side effects with clinically analogous irradiation, the small animal model was exposed to a radiation dose in a range of high dose clinical radiotherapy to induce a pulmonary fibrosis process.
As shown in FIG. 4(A), a 10 week-old C57BL/6 male mouse was anesthetized with an anesthetic mixture of 30 mg/kg Zoletil and 10 mg/kg Rompun, after which a left lung of the mouse was exposed to a high dose radiation of 75 Gy in a 3 mm range by using X-Rad 320 (Precision, North Branford, Conn., USA). Then, Compound 1 of the present invention was intraperitoneally administered to the mouse at a 13.6 mg/kg concentration three times a week. During its sacrifice, the mouse was anesthetized, after which 10% formalin was injected into the anesthetized mouse through an airway thereof to fix its lung, such that a tissue sample was prepared by using a paraffin embedding.
An amount of collagen was histologically identified through Masson's trichrome dyeing to compare degrees of pulmonary fibrosis with each other.

| Compound | melting point [°C] | altered HSP dimers (L132 cells [1]) | expression of E-cadherin (marker of epithelial cells) (L132 cells [1]) | expression of Fibronectin (marker of mesenchymal cells) (L132 cells [1]) | expression of Snail (marker of mesenchymal cells) (L132 cells [1]) | expression of E-cadherin (L132 cells [2]) | expression of Twist (marker of mesenchymal cells) (L132 cells [2]) | expression of Zo-1 (L132 cells [2]) | immune response lesion in locally irradiated lung region (naked eye) [3] |
| --- | --- | --- | --- | --- | --- | --- | --- | --- | --- |
| Cc1cc(=O)c2c(OCC3CS3)cc(OCC3CS3)cc2o1 (stereo not drawn) | 95 to 96 |  |  |  |  |  |  |  |  |
| Cc1cc(=O)c2c(O)cc(OCC3CS3)cc2o1 (stereo not drawn) [Compound 1, 5-hydroxy-2-methyl-7-(thiirane-2-ylmethoxy)-4H-chromene-4-one] |  | increasing altered HSP dimers in a dose-dependent manner | mitigating a decrease | inhibiting an increase | inhibiting an increase | mitigated a decrease | inhibited an increase | mitigated a decrease | the lesion was recovered |
